This is an account of results in patent US4496655A, “Process for the production of tyramine oxidase” (Toyo Jozo Kabushiki Kaisha, priority 1981, dated 1985).

Like-named read-outs stand apart in the source and are kept apart here.

In data set [1] the test system is tyramine oxidase. The data set can be described thus: Effect of various substances on the activity of tyramine oxidase. The data set is classed as biochemical, Arthrobacter sp. B-0813. The procedure: (§1) An enzyme solution (0.05 ml) is added to a reaction mixture (0.5 ml) consisting of the following, and the volume is increased to 1.0 ml by adding water and the mixture is incubated at 37° C. for 10 minutes.
(§2) Water (0.1 ml) is added in place of enzyme solution as a control. The reaction mixture is measured at 490 nm.
(§3) Enzyme activity is calculated by the following equation: [formula] wherein Δ490 nm is the absorption value at Δ490 nm for 10 minutes, and f is the dilution ratio.

Data set [2] relates to tyramine oxidase. The data set can be described thus: Substrate specificity of tyramine oxidase. It is filed as biochemical, Arthrobacter sp. B-0813. Also noted: Relative activity (%) as substrate: concentration or dose not given beside the values. The following applies: for Relative activity (%) as substrate: substrate added to the reaction mixture, tyramine = 100.0. The procedure: as §1, §2, §3
Substrate specificity was measured by adding various substrates to the reaction mixture.

Data set [3] relates to tyramine oxidase. The data set can be described thus: Km-value of tyramine oxidase. The data set is classed as biochemical, Arthrobacter sp. B-0813. The note with it: substrate tyramine. The procedure: as §1
Data set [4] relates to Arthrobacter sp. B-0813 FERM-P No. 6240. The data set is classed as cell-based. The note with it: arthrobacter culture. The procedure:
A medium (100 ml, pH 7.5) comprising by weight soybean oil 0.8%, corn steep liquor 1.0%, meat extract 0.1%, polypeptone 1.0%, NaCl 0.3% and β-phenylethylamine 0.15% was put into a 500 ml Erlenmeyer flask and sterilized at 120° C. for 20 minutes. Arthrobacter sp. B-0813 FERM-P No. 6240 was inoculated into the medium and the mixture was cultured at 30° C. for 20 hours to prepare a seed culture. The medium containing the same components (20 lit.) together with added 0.2% of antifoam agent (silicone AF-145), (Asahi Chem.) was poured into a 30 lit. jar fermenter and the above two flasks of seed culture were inoculated therein, then the medium was aerobically cultured with agitation at 250 rpm and with 20 lit./min. aeration for 20 hours. The tyramine oxidase activity of the cultured broth was 1.3 U/ml.
When tyramine or butylamine was added to the medium, a more than 200-fold increase in the yield of enzyme was observed as compared with no addition of these amines. The amount of such addition is 0.1-0.2%, preferably 0.15%. The culturing temperature is generally 25°-35° C. and the culturing time is 10-30 hours.

Where [5] appears, read: amount added 0.025 mM, control (no addition) = 100.0.
Where [6] appears, read: amount added 5 mM, control (no addition) = 100.0.

On to Triton X-100, for which, in the data set on tyramine oxidase [1] (setting [5]), the “Relative Activity (%)” value is listed as 96.7%. As to `[Ba+2].[Cl-].[Cl-]` [BaCl2], the “Relative Activity (%)” value with tyramine oxidase [1] (setting [6]) was found to be 96.6%. `[N-]=[N+]=[N-].[Na+]` [NaN3]: the “Relative Activity (%)” value in the data set on tyramine oxidase [1] (setting [6]) is reported as 98.3%.

Take `Cl.N` [NH4 Cl]: in the data set on tyramine oxidase [1] (setting [6]), the “Relative Activity (%)” value was 96.6%. `NCc1ccccc1` [Benzylamine]: the “Relative activity (%) as substrate” value in the data set with tyramine oxidase [2] was 0.0%. Turning to `NCCc1ccc(Cl)cc1` [p-chlorophenylethylamine], in the data set with tyramine oxidase [2], the “Activity of the enzyme on the substrate (in words)” value was “activity” and the “Relative activity (%) as substrate” value turned out to be 47.9%.

Regarding `CN` [Methylamine], in the data set on tyramine oxidase [2], the “Relative activity (%) as substrate” value turned out to be 0.0%. For `[Cl-].[Li+]` [LiCl], the “Relative Activity (%)” value with tyramine oxidase [1] (setting [6]) stood at 82.8%.

`Cc1cc2nc3c(=O)[nH]c(=O)nc-3n(C[C@H](O)[C@H](O)[C@H](O)COP(=O)(O)OP(=O)(O)OC[C@H]3O[C@@H](n4cnc5c(N)ncnc54)[C@H](O)[C@@H]3O)c2cc1C` [FAD]: the “Relative Activity (%)” value in the data set on tyramine oxidase [1] (amount added 0.1 mM, control (no addition) = 100.0) is recorded as 75.4%. For `[Cl-].[Cl-].[Co+2]` [CoCl2], in the data set on tyramine oxidase [1] (setting [6]), the “Relative Activity (%)” value is given as 86.2%.

Turning to `NCCc1ccc(O)cc1` [Tyramine, p-hydroxyphenylethylamine], the Km – broadly, the substrate concentration at which the rate is half of its maximum – in the data set on tyramine oxidase [3] was found to be 27 µM. In addition, in the data set with tyramine oxidase [2], the “Activity of the enzyme on the substrate (in words)” value is reported as “specific activity” and the “Relative activity (%) as substrate” value amounted to 100.0%. Moreover, in data set [4], the “Increase in the yield of enzyme compared with no addition of these amines” value is listed as “more than 200 fold”. Take `[Ca+2].[Cl-].[Cl-]` [CaCl2]: the “Relative Activity (%)” value in the data set on tyramine oxidase [1] (setting [6]) amounted to 86.2%. `O=C(O)CN(CCN(CC(=O)O)CC(=O)O)CC(=O)O` [EDTA]: the “Relative Activity (%)” value in the data set with tyramine oxidase [1] is on record as 100.0%. Turning to `NCCc1ccccc1` [β-phenylethylamine], in the data set on tyramine oxidase [2], the “Activity of the enzyme on the substrate (in words)” value is “activity” and the “Relative activity (%) as substrate” value is 54.7%. Regarding “Laurylbenzene sulfonate [Laurylbenzene sulfonate (LBS)]”, the “Relative Activity (%)” value in the data set on tyramine oxidase [1] (amount added 0.05 mM, control (no addition) = 100.0) amounted to 63.9%. `CCN` [Ethylamine]: the “Relative activity (%) as substrate” value in the data set on tyramine oxidase [2] is on record as 0.0%. Regarding `Cc1cc2nc3c(=O)[nH]c(=O)nc-3n(C[C@H](O)[C@H](O)[C@H](O)COP(=O)(O)O)c2cc1C` [FMN, flavin mononucleotide], the “Effect of addition on the activity of the enzyme (in words)” value with tyramine oxidase [1] is on record as “increases the activity”. In the data set with tyramine oxidase [1] (amount added 0.01 mM, control (no addition) = 100.0), the “Relative Activity (%)” value was 108.8%. In the case of `O=C(O)c1cc[c]([Hg][Cl])cc1` [p-chloromercuribenzoate (PCMB), p-chloromercuribenzoate], in the data set on tyramine oxidase [1] (amount added 0.2 mM, control (no addition) = 100.0), the “Relative Activity (%)” value is 79.3%. In the case of `CCCCN` [n-butylamine], in the data set with tyramine oxidase [2], the “Activity of the enzyme on the substrate (in words)” value is “activity” and the “Relative activity (%) as substrate” value is 45.3%. Moreover, the “Increase in the yield of enzyme compared with no addition of these amines” value in data set [4] is reported as “more than 200 fold”.

Consider `[Na+].[Na+].[O]=[Mo](=[O])([O-])[O-]` [NaMoO4], for which, in the data set with tyramine oxidase [1] (setting [6]), the “Relative Activity (%)” value amounted to 39.7%. Turning to `CCCCCCCCCCCCCCCC[N+](C)(C)C.[Cl-]` [Cetyltrimethylammonium chloride], the “Relative Activity (%)” value in the data set with tyramine oxidase [1] (setting [5]) is on record as 0.0%.

Turning to `[Cl][Mn][Cl]` [MnCl2], the “Relative Activity (%)” value with tyramine oxidase [1] (setting [6]) was found to be 82.8%.
